Data taken from ChEMBL document CHEMBL5236652, “Neuritogenic steroid glycosides from crown-of-thorns starfish: Possible involvement of p38 mitogen-activated protein kinase and attenuation of cognitive impairment in senescence-accelerated mice (SAMP8) by peripheral administration” (Bioorg Med Chem, 2023).
Values belong to the molecule of their own block, whether it stands above or below them. The source made the active and inactive calls. The calls are words filed in the database; no cut-off is given here.

How the values were obtained:
PC-12 [1] = test: Neuritogenic activity in rat PC-12 cells assessed as effect on Ras activation at 40 uM incubated for 2 hrs by Western blot analysis; format: functional, cell-based
Mus musculus [2] = test: Cognitive enhancing effect in aged ICR mouse assessed as improvement of spontaneous alternation behavior by analyzing entry to different arm at 10 mg/kg, sc for 2 weeks by Y-maze test; format: functional, organism-based
[3] = Drug uptake in ICR mouse blood at 10 mg/kg,sc and measured at 60 mins by LC-MS analysis; format: ADME, organism-based; conditions: read-out: Drug uptake
Mus musculus [4] = test: Cognitive enhancing effect in aged ICR mouse assessed as longer exploration time at 10 mg/kg, sc for 2 weeks by novel object recognition test; format: functional, organism-based
Mus musculus [5] = test: Cognitive enhancing effect in SAMP8 mouse assessed as effect on locomotion by analyzing entry to different arm at 1 to 10 mg/kg, sc for 2 weeks by Y-maze test; format: functional, organism-based; conditions: dose 1-10 mg/kg
[6] = Toxicity in ICR mouse assessed as effect on body weight at 1 to 10 mg/kg, sc for 14 days; format: organism-based; conditions: in vivo, 336 h, dose 1-10 mg/kg, time 14 day
PC-12 [7] = test: Neuritogenic activity in rat PC-12 cells assessed as effect on Cdc42 activation at 40 uM incubated for 8 to 12 hrs by Western blot analysis; format: functional, cell-based; conditions: time 8-12 hrs
Mus musculus [8] = test: Cognitive enhancing effect in SAMP8 mouse assessed as longer exploration time at 10 mg/kg, sc for 2 weeks by Novel object recognition test; format: functional, organism-based
PC-12 [9] = test: Cytotoxicity against rat PC-12 cells assessed as reduction in cell viability upto 40 uM; format: toxicity, cell-based; conditions: pc-12, 40 µM
PC-12 [10] = test: Neuritogenic activity in rat PC-12 cells assessed as inhibition of neurite outgrowth at 40 uM incubated for 6 days in presence of K252a by microscopic analysis; format: functional, cell-based; conditions: time 6.0 day
PC-12 [11] = test: Neuritogenic activity in rat PC-12 cells assessed as decrease in ERK phosphorylation at 40 uM and incubated for 1 to 2 hrs by Western blot analysis; format: functional, cell-based; conditions: time 1-2 hrs
PC-12 [12] = test: Neuritogenic activity in rat PC-12 cells assessed as inhibition of neurite outgrowth at 40 uM incubated for 6 days in presence of […] by microscopic analysis; format: functional, cell-based; conditions: time 6.0 day
[13] = Drug uptake in ICR mouse blood at 10 mg/kg,sc and measured upto 120 mins by LC-MS analysis; format: ADME, organism-based; conditions: read-out: Drug uptake
[14] = Drug uptake in ICR mouse brain at 10 mg/kg,sc and measured upto 120 mins by LC-MS analysis; format: ADME, organism-based; conditions: read-out: Drug uptake
[15] = Drug uptake in ICR mouse brain at 10 mg/kg,sc and measured at 60 mins by LC-MS analysis; format: ADME, organism-based; conditions: read-out: Drug uptake
PC-12 [16] = test: Neuritogenic activity in rat PC-12 cells overexpressing TrKA assessed as inhibition of neurite outgrowth at 40 uM incubated for 6 days by microscopic analysis; format: functional, cell-based; conditions: time 6.0 day
PC-12 [17] = test: Neuritogenic activity in rat PC-12 cells assessed as increase in p38 phosphorylation at 40 uM and measured upto 24 hrs by Western blot analysis; format: functional, cell-based
PC-12 [18] = test: Neuritogenic activity in rat PC-12 cells assessed as induction of neurite outgrowth at 40 uM incubated for 6 days by microscopic analysis; format: functional
PC-12 [19] = test: Neuritogenic activity in rat PC-12 cells assessed as inhibition of neurite outgrowth at 1 uM incubated for 6 days in presence of SB203580 by microscopic analysis; format: functional, cell-based; conditions: time 6.0 day
Mus musculus [20] = test: Cognitive enhancing effect in SAMP8 mouse assessed as improvement of spontaneous alternation behavior by analyzing entry to different arm at 1 to 10 mg/kg, sc for 2 weeks by Y-maze test; format: functional, organism-based; conditions: dose 1-10 mg/kg
PC-12 [21] = test: Neuritogenic activity in rat PC-12 cells assessed as induction of neurite outgrowth at 40 uM incubated for 1 to 6 days by microscopic analysis; format: functional, cell-based; conditions: time 1-6 day, TDE = time-dependent effect
PC-12 [22] = test: Neuritogenic activity in rat PC-12 cells assessed as inhibition of neurite outgrowth at 40 uM incubated for 6 days in presence of PD98059 by microscopic analysis; format: functional, cell-based; conditions: time 6.0 day
PC-12 [23] = test: Neuritogenic activity in rat PC-12 cells assessed as effect on TrkA phosphorylation at 40 uM incubated for 4 hrs by Western blot analysis; format: functional, cell-based
PC-12 [24] = test: Neuritogenic activity in rat PC-12 cells assessed as induction of neurite outgrowth at 10 to 40 uM incubated for 6 days by microscopic analysis; format: functional, cell-based; conditions: dose 10-40 µM, time 6.0 day

concentration at 1 h [3]: 2000 ng/mL
concentration at 2 h [13]: 7.7 ng/mL
concentration at 2 h [14]: 5 ng/g
concentration at 1 h [15]: 30 ng/g
SMILES: CO[C@H]1[C@H](O[C@@H]2C=C3[C@H](O)C[C@@]4(O)[C@@H]5[C@@H](O)[C@H](O)[C@H]([C@H](C)CC[C@H](CO[C@@H]6OC[C@@H](O)[C@H](O)[C@H]6O)C(C)C)[C@@]5(C)CC[C@@H]4[C@@]3(C)CC2)OC[C@@H](O)[C@@H]1O
Activity (PC-12 [1]): inactive
Activity (Mus musculus [2]): Active
Activity (Mus musculus [4]): Active
Activity (Mus musculus [5]): inactive
Activity [6]: Non-Toxic
Activity (PC-12 [7]): Active
Activity (Mus musculus [8]): Active
Activity (PC-12 [9]): Non-Toxic
Activity (PC-12 [10]): inactive
Activity (PC-12 [11]): Active
Activity (PC-12 [12]): inactive
Activity (PC-12 [16]): inactive
Activity (PC-12 [17]): Active
Activity (PC-12 [18]; time 6 day): 43%
Activity (PC-12 [19]): inactive
Activity (Mus musculus [20]): Active
Activity (PC-12 [21]): Tde
Activity (PC-12 [22]): inactive
Activity (PC-12 [23]): inactive
Activity (PC-12 [24]): Dose-Dependent Effect

SMILES: CO[C@@H]1[C@@H](O)[C@H](OC[C@@H](CC[C@@H](C)[C@H]2[C@@H](O)[C@H](O)[C@@H]3[C@]2(C)CC[C@H]2[C@@]3(O)C[C@@H](O)C3=C[C@@H](O[C@@H]4OC[C@@H](O)[C@H](O)[C@H]4OC)CC[C@@]32C)C(C)C)OC[C@H]1O
Activity (PC-12 [18]; time 6 day): 43%

SMILES: CO[C@H]1[C@H](O[C@@H]2C=C3[C@H](O)C[C@@]4(O)[C@@H]5[C@@H](O)[C@H](O)[C@H]([C@H](C)CC[C@H](CO)C(C)C)[C@@]5(C)CC[C@@H]4[C@@]3(C)CC2)OC[C@@H](O)[C@@H]1O
Activity (PC-12 [18]; time 6.0 day): inactive
